From US20250326933A1, “SOLID COMPOSITION OF INDOCYANINE GREEN AND SODIUM FLUORESCEIN” (ICROM Srl, priority 2021, published 2025)

Columns and labels:
[1] = Solubility in water evaluated by filtration of the solution on a syringe filter; format: physicochemical
[2] = aqueous solution; cited from earlier work
[3] = Stability of the compounds of formula (IA) and (IB) and of their solid composition by HPLC; format: physicochemical; conditions: for Stability by HPLC as such and after freeze-drying: (IA) with or without iodide
Procedure: The formulations from 13 to 18 and the compounds used for the preparation thereof were analysed with the following analytical method. The analysis confirms that the purity of IA >99.5% injected as such and the stability of the formulation after freeze-drying, evaluated based on the fact that there is no other peak in the chromatogram except for Ia and Ib.
Sample solution: 1.5 mg/ml in methanol. Inject immediately after preparing the solution. The mixtures of formula (IA) and (IB) described in Table 2 were prepared and then appropriately diluted and injected in HPLC to evaluate the profile at T0.
The same mixtures were re-prepared exactly as described in the experimental part, dry frozen and controlled in HPLC after freeze-drying, 7 days later. During these 7 days the samples were stored inside their amber glass vials in a protective atmosphere at room temperature. The freeze-dried products were dissolved in water at the same dilution as the not freeze-dried samples.
The stability of the freeze-dried powders stored in the vials was evaluated using HPLC even after 6 months. The freeze-dried products are stable, even without the presence of sodium iodide, formulation 9.
The reconstituted solution was stable if stored at 4-10° C. for at least 24 hours (formulations 1, 3, 5 and 7).

[4] = after intravenous administration; cited from earlier work
[5] = freeze-dried, 10 mg/ml in water
[6] = not freeze-dried, 5 mg/ml in water
[7] = not freeze-dried, 10 mg/ml in water

Row | Compound | Filtration on 0.45 μm syringe filter: Pressure ([1]; freeze-dried, 5 mg/ml in water) | Filtration on 0.45 μm syringe filter: ml filtered ([1]; freeze-dried, 5 mg/ml in water) [mL] | Filtration on 0.45 μm syringe filter: Pressure [1, 5] | Filtration on 0.45 μm syringe filter: ml filtered [1, 5] [mL] | Filtration on 0.45 μm syringe filter: Pressure [1, 6] | Filtration on 0.45 μm syringe filter: ml filtered [1, 6] [mL] | Filtration on 0.45 μm syringe filter: Pressure [1, 7] | Filtration on 0.45 μm syringe filter: ml filtered [1, 7] [mL] | Decomposition when dissolved in water [2] | Stability by HPLC as such and after freeze-drying [3] | Degradation by freeze-drying (HPLC) ([3]; as such or in mixture with (IB), with or without sodium iodide) | Time to complete removal by the kidneys [4] [h]
1 | CC1(C)C(/C=C/C=C/C=C/C=C2\N(CCCCS(=O)(=O)[O-])c3ccc4ccccc4c3C2(C)C)=[N+](CCCCS(=O)(=O)[O-])c2ccc3ccccc3c21.[Na+] [069/079] | Low | 10 | Low | 10 | Block | 0 | Block | 0 |  |  |  | 
2 | CC1(C)C(/C=C/C=C/C=C/C=C2\N(CCCCS(=O)(=O)[O-])c3ccc4ccccc4c3C2(C)C)=[N+](CCCCS(=O)(=O)[O-])c2ccc3ccccc3c21.[Na+] [compound of formula (IA), 1H-benz[e]indole, 2-[7-[1,3-dihydro-1,1-dimethyl-3-(4-sulfobutyl)-2H-benz[e]indol-2-ylidene]-1,3,5-heptatrienyl]-1,1-dimethyl-3-(4-sulfobutyl) hydroxide, inner salt, sodium salt] |  |  |  |  |  |  |  |  | non-detectable decomposition for a few hours | stable | does not degrade | 
3 | O=C([O-])c1ccccc1-c1c2ccc(=O)cc-2oc2cc([O-])ccc12.[Na+].[Na+] [compound of formula (IB), sodium fluorescein] |  |  |  |  |  |  |  |  |  | stable |  | 24 to 36
